Assay results published in PMC11855866 (International Journal of Molecular Sciences, 2025).
Values after ≈ are worked out from the molar mass of the structure shown. Like-named read-outs stand apart in the source and are kept apart here.

Experiments:
[1] = test system: multiple cell lines; parameters: method as in Alkhalil et al. and others [10,11,16,26]; conditions: range reported; ref Alkhalil et al. and others [10,11,16,26]; read-out: cytotoxicity (IC50 range over cell lines), literature; cited from earlier work
[2] = test system: HepG2 cells; assay: MTT cytotoxicity / synergy assay, 72 h, HepG2; conditions: Homo sapiens, HepG2, 72 h, read-out: IC50 Value in Specific Cell Line, HepG2, MTT, 72 h; n.d. = IC50 not achieved within concentrations tested
Procedure: (§4) The synergistic effects of drug combinations were studied in various cancer cell lines, including MCF-7 (human breast cancer), A549 (human lung cancer), U-87 MG (human malignant glioma), HepG2 (human liver cancer), and HUH7 (human liver cancer). HMEC-1, an immortalized human microvascular endothelial cell line, was used as a model for normal cells. All cell lines were purchased from ATCC (Rockville, MD, USA).
(§5) The cancer cell lines were cultured in Dulbecco’s Modified Eagle’s Medium (DMEM; Sigma-Aldrich) supplemented with 10% FBS and 1% penicillin/streptomycin mixture (10,000 U/mL penicillin and 10 mg/mL streptomycin; Sigma-Aldrich) at 37 °C in a humidified atmosphere with 5% CO2.
(§6) For the MTT assay, exponentially growing cells were seeded into 96-well plates at a density of 5 × 10³ cells per well. After 24 h of incubation, the medium was replaced with 100 µL of fresh medium containing the tested compounds. After 72 h of treatment, cell viability was assessed using the MTT assay as described earlier. […] IC50 values were calculated using GraphPad Prism 9 software (GraphPad Software).

[3] = test system: HMEC-1 cells; assay: MTT cytotoxicity / synergy assay, 72 h, HMEC-1; conditions: Homo sapiens, HMEC-1, 72 h, read-out: IC50 Value in Specific Cell Line, HMEC-1
Procedure: as §4, §5, §6

[4] = Hemolysis (Drabkin's method); format: cell-based; conditions: human, washed erythrocyte (RBC) suspension, 40% hematocrit, pH 7.4, single drug, RT, dark, CTRL− 11.6%
Procedure: Blood samples were collected from healthy human volunteers into Vacutainer tubes containing 3% sodium citrate (BD Biosciences, Warsaw, Poland). Whole blood was centrifuged at 1500 rpm (RCF = 214 g) for 10 min in a CompactStar CS4 centrifuge (VWR) at RT to separate erythrocytes, which were washed twice with PBS (pH 7.4) and centrifuged at 1500 rpm for 5 min at RT after each wash. Hematocrit was measured to adjust the final RBC concentration in PBS (pH 7.4) to 40%. The drugs were then dissolved in the RBC suspension at the final concentrations outlined in Figure 8. RBCs incubated in dH2O were used as a positive control (100% hemolysis), while RBCs in PBS were used as the negative control. A blank sample of PBS without RBCs or drugs provided a baseline for absorbance measurements. Experimental samples, along with positive, negative, and vehicle (0.5% DMSO) controls, were incubated for 4 h at RT in the dark. After incubation, the samples were centrifuged at 1500 rpm for 5 min at RT, and the supernatant was collected to measure hemoglobin release using Drabkin’s method. Absorbance was measured at 540 nm with a Jenway 6305 UV/Vis spectrophotometer (Bibby Scientific, Staffordshire, UK). This study was conducted in triplicate. The percentage of hemolysis was calculated by comparing the absorbance at 540 nm (OD540) of the test sample with that of the positive control using the following formula:(2) % Hemolysis=OD540Test−OD540(Blank)/OD540Total Lysis−OD540(Blank)×100%

[5] = test system: A549, HepG2, MCF-7, and U-87MG; assay: Doxorubicin accumulation assay, sensitive cell lines; format: cell-based, human
Procedure: (§1) Cells were seeded at a density of 2 × 10^4 cells per well in black 96-well plates as described in Section 3.6.

[6] = test system: A549 cells; assay: MTT cytotoxicity / synergy assay, 72 h, A549; conditions: Homo sapiens, A549, 72 h, read-out: IC50 Value in Specific Cell Line, A549, MTT, 72 h; n.d. = IC50 not achieved within concentrations tested
Procedure: as §4, §5, §6

[7] = Analysis of drug solubility (Cobs by HPLC); format: physicochemical
Procedure: The drug content in the samples was determined using a previously described HPLC method. The analysis was performed on an Ultimate 3000 HPLC system (Dionex Co., Germering, Germany), equipped with a UV–Vis detector and a TSKgel ODS-100V column (particle size: 5 µm; dimensions: 4.6 mm i.d. × 15 cm; Tosoh Co., Tokyo, Japan). The mobile phase consisted of MeCN and 20 mM KH2PO4 buffer (pH 3.0) in an appropriate ratio. The flow rate was maintained at 1.0 mL/min, with the column temperature set to 30 °C. All compounds were detected at 228 nm.
Some samples included 0.05% (v/v) Tween-80. For experiments involving BSA, a separate solution was prepared by dissolving 4.5 mg/mL of BSA (cat. #422381B, VWR) in the same PBS (pH 7.4), with or without 0.05% (v/v) Tween-80. All samples were incubated at 37 °C with shaking for 24 h. After incubation, the samples were either centrifuged at 13,500 rpm (RCF = 12,225 g) for 15 min using a Micro Star 12 microcentrifuge (VWR), and 150 µL of the supernatant was collected for HPLC analysis, or filtered using 0.22 µm PVDF syringe filters (13 mm i.d., cat. #514-1251, VWR) or AcroPrep™ Advance 96-well filter plates (Pall Corporation, Dreieich, Germany) with various molecular weight cut-offs.

[8] = test system: HuH7 cells; assay: MTT cytotoxicity / synergy assay, 72 h, HuH7; conditions: Homo sapiens, Huh-7, 72 h, read-out: IC50 Value in Specific Cell Line, HuH7
Procedure: as §4, §5, §6

[9] = test system: CT26 colon cancer model; parameters: method as in PMID 36033393; conditions: GLIM 5 mg/kg every 2 days, i.p.; cited from earlier work
[10] = test system: HSA; parameters: method as in Figure S2 [39–71]; conditions: ref Figure S2 [39–71]; cited from earlier work
[11] = test system: A549 cells; assay: Doxorubicin accumulation assay, A549; format: cell-based, human; conditions: 50 µM DOXO and 1.56 µM GLIM, 3 h
Procedure: as §1

[12] = cited from earlier work
[13] = test system: MCF-7 cells; assay: MTT cytotoxicity / synergy assay, 72 h, MCF-7; format: cell-based, human; conditions: 72 h
Procedure: (§2) Stock solutions of the tested compounds were first prepared in DMSO at 200-fold the intended final concentration. […] The cells were treated for 72 h under the same conditions.
(§3) Following treatment, 25 μL of MTT solution was added to each well, and the plates were incubated for 2 h at 37 °C. […] IC₅₀ values, indicating the concentration required to reduce cell viability by 50% compared to untreated controls (set as 100% viability), were calculated using GraphPad Prism 9 software (GraphPad Software, San Diego, CA, USA). All data from this preliminary cytotoxic assay were analyzed by ANOVA followed by Tukey’s post hoc test for multiple comparisons, with significance set at p < 0.05. A similar statistical approach was used for the rest of the experimental work presented in this study.

[14] = MTT cytotoxicity / synergy assay, 72 h, MCF-7; format: cell-based, human; conditions: human, MCF-7 cells
Procedure: as §2, §3

concentration up to which Cobs matches the expected concentration ([7]; GLIM only in PBS pH 7.4, 37 °C, 24 h, centrifugation): up to 100 µM
observed concentration (Cobs) ([7]; GLIM only, 0.22 µm syringe filters, all tested samples): 8.6 to 16.6 µM
solubility kinetic at 24 h ([7]; PBS, pH 7.4, aqueous buffer, read-out: observed concentration (Cobs) above the threshold): ~5 µM (≈ 2.45 µg/mL)
SMILES: CCC1=C(C)CN(C(=O)NCCc2ccc(S(=O)(=O)NC(=O)N[C@H]3CC[C@H](C)CC3)cc2)C1=O [GLIM, Glimepiride]
IC50 [1]: 89.4 to 426 µM
IC50 [2]: 177 µM
CC50 [3]: 136 ± 5.1 µM
hemolysis at 4 h [4]: 11.2 to 11.9%
increase of DOXO levels [5]: up to 2.3 times
IC50 [6]: 353 µM
IC50 [8]: 476 ± 7 µM
increase in CD8+ T cell infiltration [9]: about 100%
reduction of tumor mass [9]: 45%
nKa (global affinity constant, HSA) [10]: 910000 M⁻¹
increase in DOXO level compared to DOXO monotherapy [11]: 227%
protein-bound in plasma [12]: 99.4%
decrease in cell viability caused by 0.05% Tween-80 ([13]; with vs. without 0.05% Tween-80): 24.6%
IC50 ([13]; Homo sapiens, MCF7, 72 h, MTT, n.d. = IC50 not achieved within concentrations tested, read-out: IC50 Value in Specific Cell Line, MCF-7): 175 µM
viability at 72 h ([14]; 0.05% Tween-80, read-out: MCF-7 viability with 0.05% Tween-80): 71.2%
viability at 72 h ([14]; before addition of 0.05% Tween-80, read-out: MCF-7 viability without Tween-80): 95.9%
